Results reported in ChEMBL document CHEMBL6092148, “Design, preparation and biological evaluation of new Rociletinib-inspired analogs as irreversible EGFR inhibitors to treat non-small-cell-lung cancer” (Bioorg Med Chem, 2024).

What was measured:
[1] = target: T1, Epidermal growth factor receptor (Homo sapiens, UniProt P00533)
Description: Inhibition of wild type EGFR (unknown origin) using poly (Glu:Tyr) as substrate incubated for 1 hr in presence of ATP by ADP-glo kinase assay

[2] = target: T2, Tyrosine-protein kinase JAK3 (Homo sapiens, UniProt P52333)
T2 sequence (P52333 whole entry): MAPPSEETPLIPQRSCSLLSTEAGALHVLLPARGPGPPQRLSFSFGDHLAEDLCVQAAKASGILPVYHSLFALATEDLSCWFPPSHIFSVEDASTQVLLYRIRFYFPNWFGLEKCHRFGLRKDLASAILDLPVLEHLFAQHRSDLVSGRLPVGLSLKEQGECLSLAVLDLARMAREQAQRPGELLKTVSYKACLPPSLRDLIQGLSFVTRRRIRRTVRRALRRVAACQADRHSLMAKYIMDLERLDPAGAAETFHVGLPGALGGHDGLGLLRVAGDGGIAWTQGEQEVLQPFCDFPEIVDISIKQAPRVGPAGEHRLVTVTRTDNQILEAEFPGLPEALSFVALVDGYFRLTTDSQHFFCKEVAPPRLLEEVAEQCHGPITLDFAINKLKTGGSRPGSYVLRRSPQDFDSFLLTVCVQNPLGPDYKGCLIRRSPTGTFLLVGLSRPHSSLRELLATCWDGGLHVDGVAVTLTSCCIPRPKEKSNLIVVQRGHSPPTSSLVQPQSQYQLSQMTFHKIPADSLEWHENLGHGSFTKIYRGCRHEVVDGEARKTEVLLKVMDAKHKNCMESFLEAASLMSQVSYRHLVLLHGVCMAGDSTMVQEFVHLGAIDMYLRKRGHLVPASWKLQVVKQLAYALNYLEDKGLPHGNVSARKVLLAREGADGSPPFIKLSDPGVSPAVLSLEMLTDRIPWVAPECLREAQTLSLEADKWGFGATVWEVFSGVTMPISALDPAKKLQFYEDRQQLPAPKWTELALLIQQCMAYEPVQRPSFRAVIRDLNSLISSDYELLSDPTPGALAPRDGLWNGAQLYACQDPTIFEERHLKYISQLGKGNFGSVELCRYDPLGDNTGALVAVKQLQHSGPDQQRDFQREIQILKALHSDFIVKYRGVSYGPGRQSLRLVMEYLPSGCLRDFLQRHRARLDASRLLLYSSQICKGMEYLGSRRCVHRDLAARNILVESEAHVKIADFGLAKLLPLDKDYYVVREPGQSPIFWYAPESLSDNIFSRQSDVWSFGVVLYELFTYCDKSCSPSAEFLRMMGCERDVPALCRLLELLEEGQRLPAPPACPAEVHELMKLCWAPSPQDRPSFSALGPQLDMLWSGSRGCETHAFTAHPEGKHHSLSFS
Description: Inhibition of JAK3 (unknown origin) using poly (Glu:Tyr) as substrate incubated for 1 hr in presence of ATP by ADP-glo kinase assay

[3] = Aqueous solubility of the compound in PBS buffer at PH 7.4 measured after 6 hrs by HPLC-UV analysis; format: physicochemical; details: pH 7.4, 6 h
[4] = target: Epidermal growth factor receptor (Homo sapiens, UniProt P00533, L858R/T790M)
Epidermal growth factor receptor (Homo sapiens, UniProt P00533, L858R/T790M), sequence (P00533 25-1210 T790M/L858R limits assumed): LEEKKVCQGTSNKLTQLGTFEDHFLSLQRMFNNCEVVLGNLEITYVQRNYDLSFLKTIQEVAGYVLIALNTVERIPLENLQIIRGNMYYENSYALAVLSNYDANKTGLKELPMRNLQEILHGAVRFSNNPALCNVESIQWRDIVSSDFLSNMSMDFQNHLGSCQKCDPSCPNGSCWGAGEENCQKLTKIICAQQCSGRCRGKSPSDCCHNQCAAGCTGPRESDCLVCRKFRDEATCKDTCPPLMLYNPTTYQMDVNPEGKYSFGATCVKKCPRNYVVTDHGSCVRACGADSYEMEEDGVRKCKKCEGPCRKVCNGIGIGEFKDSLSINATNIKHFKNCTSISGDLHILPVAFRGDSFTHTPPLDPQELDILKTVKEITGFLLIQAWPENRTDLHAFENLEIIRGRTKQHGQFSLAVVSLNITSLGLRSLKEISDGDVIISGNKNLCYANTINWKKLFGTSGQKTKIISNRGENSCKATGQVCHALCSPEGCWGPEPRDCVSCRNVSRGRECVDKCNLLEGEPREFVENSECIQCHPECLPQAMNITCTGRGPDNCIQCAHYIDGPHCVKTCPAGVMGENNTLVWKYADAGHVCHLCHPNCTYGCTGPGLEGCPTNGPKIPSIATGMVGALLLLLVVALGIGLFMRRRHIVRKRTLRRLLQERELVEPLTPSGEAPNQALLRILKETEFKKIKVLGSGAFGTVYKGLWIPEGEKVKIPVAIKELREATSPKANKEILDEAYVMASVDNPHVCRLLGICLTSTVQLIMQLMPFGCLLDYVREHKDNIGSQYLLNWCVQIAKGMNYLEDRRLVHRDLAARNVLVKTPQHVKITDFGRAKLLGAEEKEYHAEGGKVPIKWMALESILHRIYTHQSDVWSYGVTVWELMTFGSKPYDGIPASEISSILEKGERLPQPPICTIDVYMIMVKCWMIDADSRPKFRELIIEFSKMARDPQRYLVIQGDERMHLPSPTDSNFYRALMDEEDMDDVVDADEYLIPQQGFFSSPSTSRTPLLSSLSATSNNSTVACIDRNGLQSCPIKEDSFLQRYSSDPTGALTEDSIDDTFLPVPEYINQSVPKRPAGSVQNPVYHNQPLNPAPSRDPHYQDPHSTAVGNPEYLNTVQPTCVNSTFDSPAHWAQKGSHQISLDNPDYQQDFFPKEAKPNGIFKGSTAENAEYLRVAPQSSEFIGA

[5] = system: A549; test: cells; details: Homo sapiens, A549, 72 h
[6] = system: A-431; test: cells; details: Homo sapiens, A-431, 72 h
[7] = system: HepG2; test: cells; details: Homo sapiens, HepG2, 72 h
[8] = in vitro; details: human, HepG2 cells and A549 cells
Description: Selectivity index, ratio of IC50 for human HepG2 cells to IC50 for human A549 cells

[9] = physchem; details: 1-octanol/PBS, pH 7.4
[10] = target: T1, Epidermal growth factor receptor; test: Potency index, ratio of rociletinib IC50 to test compound IC50 for inhibition of wild type EGFR (unknown origin)
[11] = target: T1, Epidermal growth factor receptor; test: Binding affinity to wild type EGFR (unknown origin) assessed as inhibition constant
[12] = target: T1, Epidermal growth factor receptor; remark: listed apart in the source
Description: Irreversible inhibition of wild type EGFR (unknown origin) assessed as inactivation constant

T1 sequence (P00533 whole entry): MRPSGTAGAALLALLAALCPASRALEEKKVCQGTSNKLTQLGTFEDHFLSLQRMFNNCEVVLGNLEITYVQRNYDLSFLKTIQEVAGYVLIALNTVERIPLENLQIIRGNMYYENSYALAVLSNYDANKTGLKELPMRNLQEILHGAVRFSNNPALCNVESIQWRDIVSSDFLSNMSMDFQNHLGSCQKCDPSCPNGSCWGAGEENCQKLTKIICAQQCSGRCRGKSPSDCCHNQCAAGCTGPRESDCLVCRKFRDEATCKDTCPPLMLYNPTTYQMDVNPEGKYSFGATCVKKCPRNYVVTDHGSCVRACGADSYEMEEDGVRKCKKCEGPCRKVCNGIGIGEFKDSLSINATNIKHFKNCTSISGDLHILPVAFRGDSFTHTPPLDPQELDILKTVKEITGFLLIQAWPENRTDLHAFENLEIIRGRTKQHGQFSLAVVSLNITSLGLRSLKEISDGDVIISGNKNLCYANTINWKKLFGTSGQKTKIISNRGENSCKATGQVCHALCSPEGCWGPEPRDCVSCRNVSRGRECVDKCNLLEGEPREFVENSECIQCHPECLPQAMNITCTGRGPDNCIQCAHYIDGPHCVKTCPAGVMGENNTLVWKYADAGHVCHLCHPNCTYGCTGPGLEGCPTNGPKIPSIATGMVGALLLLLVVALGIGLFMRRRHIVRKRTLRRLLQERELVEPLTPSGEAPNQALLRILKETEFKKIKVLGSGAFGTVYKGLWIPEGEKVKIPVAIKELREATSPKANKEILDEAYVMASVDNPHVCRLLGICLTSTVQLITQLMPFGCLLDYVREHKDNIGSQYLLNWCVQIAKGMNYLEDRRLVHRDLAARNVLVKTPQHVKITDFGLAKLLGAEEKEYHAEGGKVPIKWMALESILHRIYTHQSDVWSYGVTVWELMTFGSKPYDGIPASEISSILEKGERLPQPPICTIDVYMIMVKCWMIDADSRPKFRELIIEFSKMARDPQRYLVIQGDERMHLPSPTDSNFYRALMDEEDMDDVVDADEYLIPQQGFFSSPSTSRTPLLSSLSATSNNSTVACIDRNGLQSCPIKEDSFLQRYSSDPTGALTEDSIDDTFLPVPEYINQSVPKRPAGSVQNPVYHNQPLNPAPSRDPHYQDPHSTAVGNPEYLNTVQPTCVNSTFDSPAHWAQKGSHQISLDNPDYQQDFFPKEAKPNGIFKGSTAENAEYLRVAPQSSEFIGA

SMILES	IC50 [1]	solubility [3]	IC50 [4]	IC50 [5]	IC50 [6]	IC50 [7]	logD at 6 h [9]	selectivity ratio [8]	other results
C=CC(=O)Nc1cccc(Nc2nc(Nc3ccc4c(C)n(C)nc4c3)ncc2Cl)c1	0.0978 µM								
COc1cc(N2CCN(C(C)=O)CC2)ccc1Nc1ncc(Cl)c(Nc2cccc(NC(=O)CCl)c2)n1	0.0226 µM	8.65 µg	0.0568 µM	5.78 µM	7.05 µM	12.6 µM	3.67	2.18	Ratio IC50 [10]: 28
CCC(=O)Nc1cccc(Nc2nc(Nc3ccc(N4CCN(C(C)=O)CC4)cc3OC)ncc2Cl)c1	0.0629 µM								
Cc1c2ccc(Nc3ncc(Cl)c(Nc4cccc(NC(=O)/C=C/c5ccccc5)c4)n3)cc2nn1C	0.0656 µM								
CC(=O)N1CCN(c2ccc(Nc3ncc(Cl)c(Nc4cccc(NC(=O)CCl)c4)n3)cc2)CC1	0.114 µM								
CCC(=O)Nc1cccc(Nc2nc(Nc3ccc4[nH]c(=O)oc4c3)ncc2Cl)c1	0.116 µM								
Cn1cc(Nc2ncc(Cl)c(Nc3cccc(NC(=O)/C=C/c4ccccc4)c3)n2)cn1	0.0448 µM	1.35 µg	0.0228 µM	1.48 µM	10.5 µM	3.65 µM	4.18	2.46	IC50 [2]: 0.008 µM
C=CC(=O)Nc1cccc(Nc2nc(Nc3ccc(N4CCN(C(C)=O)CC4)cc3OC)ncc2C(F)(F)F)c1 [ROCILETINIB]		221 µg		0.2 µM	0.32 µM	7.39 µM	3.18		IC50 [2]: 0.0043 µM

The remaining molecules from weak to strong by IC50 [1], led by results:

IC50 [1]	solubility [3]	IC50 [4]	IC50 [5]	IC50 [6]	IC50 [7]	logD at 6 h [9]	SMILES	selectivity ratio [8]	other results
0.174 µM	109 µg	0.0207 µM	0.79 µM	6.39 µM	3.25 µM	2.86	C=CC(=O)Nc1cccc(Nc2nc(Nc3cnn(C)c3)ncc2Cl)c1	4.11	IC50 [2]: 0.0695 µM; Ki [11]: 3810 µM; Kinact [12]: 6.16 10^-1/s
0.0878 µM							CC(=O)N1CCN(c2ccc(Nc3ncc(Cl)c(Nc4cccc(NC(=O)/C=C/c5ccccc5)c4)n3)cc2)CC1		
0.0876 µM							C=CC(=O)Nc1cccc(Nc2nc(Nc3ccc(N4CCN(C(C)=O)CC4)cc3OC)ncc2Cl)c1		
0.0789 µM							Cc1c2ccc(Nc3ncc(Cl)c(Nc4cccc(NC(=O)CCl)c4)n3)cc2nn1C		
0.0767 µM							O=C(/C=C/c1ccccc1)Nc1cccc(Nc2nc(Nc3ccc4[nH]c(=O)oc4c3)ncc2Cl)c1		
0.0659 µM							CCC(=O)Nc1cccc(Nc2nc(Nc3ccc(N4CCN(C(C)=O)CC4)cc3)ncc2Cl)c1		
0.0635 µM							C=CC(=O)Nc1cccc(Nc2nc(Nc3ccc4[nH]c(=O)oc4c3)ncc2Cl)c1		
0.0592 µM							CCC(=O)Nc1cccc(Nc2nc(Nc3ccc4c(C)n(C)nc4c3)ncc2Cl)c1		
0.058 µM							COc1cc(N2CCN(C(C)=O)CC2)ccc1Nc1ncc(Cl)c(Nc2cccc(NC(=O)/C=C/c3ccccc3)c2)n1		
0.0436 µM	13.4 µg	0.0697 µM	0.23 µM	3.47 µM	1.07 µM	3.18	C=CC(=O)Nc1cccc(Nc2nc(Nc3ccc(N4CCN(C(C)=O)CC4)cc3)ncc2Cl)c1	4.65	
0.0431 µM	15.4 µg	0.0632 µM	7.29 µM	7.49 µM	7.06 µM	3.51	O=C(CCl)Nc1cccc(Nc2nc(Nc3ccc4[nH]c(=O)oc4c3)ncc2Cl)c1	0.96	
0.0416 µM	183 µg	0.0478 µM	2.78 µM	3.7 µM	4.3 µM	2.6	Cn1cc(Nc2ncc(Cl)c(Nc3cccc(NC(=O)CCl)c3)n2)cn1	1.54	IC50 [2]: 0.911 µM
0.035 µM	80.1 µg	0.0189 µM	2.77 µM	11.2 µM	28.3 µM	2.67	CCC(=O)Nc1cccc(Nc2nc(Nc3cnn(C)c3)ncc2Cl)c1	10.2	IC50 [2]: 0.0317 µM
